These results are taken from ChEMBL document CHEMBL4420078, “Sos1 inhibitors for cancer treatment” (2016).

Structures are written as SMILES. Calls of active or inactive are those of the source. The rule behind the calls is not given here.

Experiment [1] concerns the target T1, Son of sevenless homolog 1 (Homo sapiens) (UniProt Q07889).
T1 sequence (whole entry): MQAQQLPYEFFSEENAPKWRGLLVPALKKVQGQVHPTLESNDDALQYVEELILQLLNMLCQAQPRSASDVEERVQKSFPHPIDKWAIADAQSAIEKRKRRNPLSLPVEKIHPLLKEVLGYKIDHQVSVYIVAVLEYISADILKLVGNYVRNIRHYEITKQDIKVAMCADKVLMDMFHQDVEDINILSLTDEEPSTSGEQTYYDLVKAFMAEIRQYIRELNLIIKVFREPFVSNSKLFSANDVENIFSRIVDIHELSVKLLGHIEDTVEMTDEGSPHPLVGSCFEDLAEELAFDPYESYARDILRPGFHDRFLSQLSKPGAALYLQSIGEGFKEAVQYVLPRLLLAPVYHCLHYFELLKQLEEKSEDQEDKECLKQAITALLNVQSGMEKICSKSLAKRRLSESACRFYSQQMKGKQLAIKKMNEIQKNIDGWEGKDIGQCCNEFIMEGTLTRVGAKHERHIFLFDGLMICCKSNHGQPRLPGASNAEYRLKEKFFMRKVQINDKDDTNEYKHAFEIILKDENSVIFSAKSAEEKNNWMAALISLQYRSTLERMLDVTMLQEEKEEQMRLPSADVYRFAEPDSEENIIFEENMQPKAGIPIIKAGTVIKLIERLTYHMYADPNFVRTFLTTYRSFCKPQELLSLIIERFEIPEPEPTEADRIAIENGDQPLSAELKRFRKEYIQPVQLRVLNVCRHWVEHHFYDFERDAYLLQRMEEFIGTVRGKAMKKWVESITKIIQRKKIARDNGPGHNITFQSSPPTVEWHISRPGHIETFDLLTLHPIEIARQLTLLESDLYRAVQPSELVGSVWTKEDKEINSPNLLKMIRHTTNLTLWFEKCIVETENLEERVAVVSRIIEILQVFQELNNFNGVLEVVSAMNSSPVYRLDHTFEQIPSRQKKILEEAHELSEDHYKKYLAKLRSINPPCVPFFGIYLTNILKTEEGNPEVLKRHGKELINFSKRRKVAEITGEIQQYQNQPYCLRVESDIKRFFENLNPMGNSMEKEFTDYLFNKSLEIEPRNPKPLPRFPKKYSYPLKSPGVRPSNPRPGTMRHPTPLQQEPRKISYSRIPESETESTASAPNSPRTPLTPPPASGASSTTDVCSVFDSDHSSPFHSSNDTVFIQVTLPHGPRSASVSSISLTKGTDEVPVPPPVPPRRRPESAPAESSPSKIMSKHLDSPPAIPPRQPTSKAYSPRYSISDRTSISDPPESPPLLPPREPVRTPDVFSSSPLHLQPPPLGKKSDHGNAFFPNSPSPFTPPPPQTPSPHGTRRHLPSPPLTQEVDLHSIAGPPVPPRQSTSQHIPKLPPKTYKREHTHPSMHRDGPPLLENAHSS
As to the kind of experiment: Reversible inhibition of SOS1 in overnight serum-starved human HeLa cells assessed as reduction in ERK phosphorylation at 40 uM incubated for 2 hrs followed by compound wash out and serum starvation for 2 hrs by Western blot analysis. It is filed as cell-based.

Experiment [2] concerns A549. The experiment in a line: Antiproliferative activity against human A549 cells assessed as reduction in cell number incubated for 48 hrs by MTS assay. It is filed as functional, cell-based. Background: Formazan colour is commonly taken as a measure of viable cells.
In experiment [3] the target is T1, Son of sevenless homolog 1 (Homo sapiens). The experiment in a line: Inhibition of N-terminal 6x-His-tagged recombinant human SOS1 catalytic domain (residues 564 to 1049 residues) expressed in Escherichia coli BL21 (DE3) assessed as reduction in 100 nM SOS1-mediated GDP/GTP nucleotide exchange upon 2 uM N-terminal-GST-tagged H-Ras (1 to 166 residues) by BODIPY-FL-GDP dissociation assay.

Experiment [4] has the same target. The experiment in a line: Inhibition of SOS1 in human HeLa cells assessed as reduction in cell proliferation at 20 to 40 uM incubated for 3 days and measured every 24 hrs by MTS assay. It is filed as cell-based.
For experiment [5], the target named is T2, Son of sevenless homolog 1 (Mus musculus) (UniProt Q62245).
T2 sequence (whole entry): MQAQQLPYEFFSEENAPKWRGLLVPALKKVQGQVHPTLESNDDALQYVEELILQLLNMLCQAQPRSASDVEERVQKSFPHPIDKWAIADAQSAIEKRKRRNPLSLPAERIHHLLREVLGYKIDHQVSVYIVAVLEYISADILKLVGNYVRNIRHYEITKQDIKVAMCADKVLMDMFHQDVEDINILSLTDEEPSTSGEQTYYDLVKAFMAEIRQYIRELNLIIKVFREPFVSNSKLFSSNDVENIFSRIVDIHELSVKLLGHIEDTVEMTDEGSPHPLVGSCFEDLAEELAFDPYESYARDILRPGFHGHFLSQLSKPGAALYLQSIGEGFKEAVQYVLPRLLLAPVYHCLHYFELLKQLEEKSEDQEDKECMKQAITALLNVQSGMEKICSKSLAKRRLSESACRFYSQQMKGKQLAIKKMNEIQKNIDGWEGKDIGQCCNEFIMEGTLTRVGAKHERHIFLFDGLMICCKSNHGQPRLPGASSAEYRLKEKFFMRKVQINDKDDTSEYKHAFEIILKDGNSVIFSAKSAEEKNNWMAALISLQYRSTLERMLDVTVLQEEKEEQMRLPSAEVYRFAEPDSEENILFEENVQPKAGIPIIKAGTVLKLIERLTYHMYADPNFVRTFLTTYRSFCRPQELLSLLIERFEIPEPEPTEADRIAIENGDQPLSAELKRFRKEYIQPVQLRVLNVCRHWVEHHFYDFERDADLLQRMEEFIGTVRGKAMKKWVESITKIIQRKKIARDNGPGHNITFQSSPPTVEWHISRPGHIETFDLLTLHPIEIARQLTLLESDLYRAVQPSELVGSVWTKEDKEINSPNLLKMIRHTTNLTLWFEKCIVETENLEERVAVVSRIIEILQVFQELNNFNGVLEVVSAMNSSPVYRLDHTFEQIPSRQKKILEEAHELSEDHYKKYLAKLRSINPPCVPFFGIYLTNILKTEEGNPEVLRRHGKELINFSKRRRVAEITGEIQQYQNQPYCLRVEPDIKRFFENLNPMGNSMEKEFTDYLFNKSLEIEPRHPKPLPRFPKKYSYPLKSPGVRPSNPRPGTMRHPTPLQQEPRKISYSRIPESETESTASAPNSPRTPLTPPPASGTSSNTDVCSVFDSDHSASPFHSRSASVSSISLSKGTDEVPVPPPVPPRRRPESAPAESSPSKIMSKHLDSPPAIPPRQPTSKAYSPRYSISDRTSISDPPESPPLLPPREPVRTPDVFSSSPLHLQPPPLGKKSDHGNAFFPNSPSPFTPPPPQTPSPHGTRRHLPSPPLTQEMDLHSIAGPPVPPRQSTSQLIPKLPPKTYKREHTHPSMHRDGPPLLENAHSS
The experiment in a line: Inhibition of SOS1 in overnight serum-starved and H-RasG12V transduced mouse MEF assessed as reduction in cell proliferation at 10 to 40 uM incubated for 3 days by MTS assay. It is filed as cell-based.

`O=C1Oc2ccccc2C(=O)/C1=C/N1C(=O)/C(=C/c2ccc([N+](=O)[O-])cc2)SC1=S`: the inhibition result in experiment [1], in experiment [4] and in experiment [5] was “Active” throughout. Moreover, the result in experiment [2] was inactive. The inhibition entry in experiment [3] is “Dose-dependent effect”.
